# Earlier results in US20180242917A1, “SYSTEMS AND METHODS FOR DETERMINING IMAGE QUALITY AND MODELS BASED ON CONTRAST INJECTION PROTOCOLS” (Duke University, priority 2015, published 2018).
# Parameters: unit not given here
# Conditions: used to calculate total EC fluid volume (18.9 L incl. 3 L plasma) for a 70-kg adult patient
compound,measurement,value
CC(=O)N(CC(O)CO)c1c(I)c(C(=O)NCC(O)CO)c(I)c(C(=O)NCC(O)CO)c1I (stereo not shown) [iohexol],apparent volume value of distribution,0.27
